Structures can show the parent of a compound that is named as a salt. Where two headings read alike, the source gives them in different places.
Tests used:
Assay in all cases: In vitro high-throughput screen of FDA-approved drug library (CellTiter-Glo)
Assay type in all cases: cell-based
[1] = system: A673; details: for inhibition at 1 µM: Homo sapiens, read-out: % Inhibition A673
Protocol: (§1) We screened, in parallel to the three computational approaches, an FDA-approved drug library containing 2,316 drugs (1,536 unique chemical entities). […] The drug screening study protocol employed is summarized in Supplementary Table S1.
(§2) Cells were grown to 80–90% confluence, harvested and aliquoted into 384-well plates (black μClear microplates, Greiner bio-one, Germany) at concentrations of 750–1,500 cells per well in a total volume of 25 μl/well using a Matrix Wellmate (Thermo Scientific). Cells were cultured for 72 hours in a 5% CO2 atmosphere at 37°C. Aliquots of 25 μl CellTiter-Glo® Reagent (Promega) were added directly to each well, the plates were incubated at room temperature for 20 min and the luminescence signal was measured according to the manufacturer's protocol. The measurements were made using Infinite® M200 Pro plate reader (Tecan, Switzerland). […] Data were normalized to percentage inhibition. […]
(§3) (A) Color scale for drug inhibition values. […]

[2] = system: Hs 919.T.; details: for inhibition at 1 µM: read-out: % Inhibition Hs 919.T.
Protocol: as §1, §2, §3

[3] = system: SK-ES-1; details: for inhibition at 1 µM: Homo sapiens, read-out: % Inhibition SK-ES-1
Protocol: as §1, §2, §3

[4] = system: RD-ES; details: for inhibition at 1 µM: RD-ES, read-out: % Inhibition RD-ES
Protocol: as §1, §2, §3

[5] = 1 μmol/L drug, 72 hours, control cell line
[6] = SK-ES1, 1 μmol/L drug, 72 hours

Row | SMILES | inhibition at 1 µM ([1]; A673, 1 μmol/L drug, 72 hours) | inhibition at 1 µM [2, 5] | inhibition at 1 µM [3, 6] | inhibition at 1 µM ([4]; 1 μmol/L drug, 72 hours) | also measured
1 | CO[C@H]1C[C@@H]2CC[C@@H](C)[C@@](O)(O2)C(=O)C(=O)N2CCCC[C@H]2C(=O)O[C@H]([C@H](C)C[C@@H]2CC[C@@H](O)[C@H](OC)C2)CC(=O)[C@H](C)/C=C(\C)[C@@H](O)[C@@H](OC)C(=O)[C@H](C)C[C@H](C)/C=C/C=C/C=C/1C [Rapamycin] | 67% | < 50% | 51% | 62% | 
2 | NNC(=O)c1ccncc1 [Isoniazid] | 56% | < 50% | < 50% | < 50% | 
3 | Nc1ccn([C@@H]2O[C@H](CO)[C@@H](O)[C@@H]2O)c(=O)n1 [Cytosine β-D-arabinofuranoside] |  |  |  |  | % Inhibition A673 ([1]; 1 μmol/L drug, 72 hours): 84%; % Inhibition Hs 919.T. [2, 5]: < 50%; % Inhibition SK-ES-1 ([3]; 1 μmol/L drug, 72 hours): 98%; % Inhibition RD-ES ([4]; 1 μmol/L drug, 72 hours): 93%
4 | C=C1[C@@H]2CC[C@H]3[C@]4(C)C[C@H](O[C@@H]5O[C@H](CO)[C@@H](OS(=O)(=O)[O-])[C@H](OS(=O)(=O)[O-])[C@H]5OC(=O)CC(C)C)C[C@@H](C(=O)O)[C@H]4CC[C@]3(C2)[C@H]1O.[K+].[K+] [Atractyloside potassium salt] |  |  |  |  | % Inhibition A673 ([1]; 1 μmol/L drug, 72 hours): 99%; % Inhibition Hs 919.T. [2, 5]: < 50%; % Inhibition SK-ES-1 ([3]; 1 μmol/L drug, 72 hours): 99%; % Inhibition RD-ES ([4]; 1 μmol/L drug, 72 hours): 98%
5 | Nc1nc(O)c2[nH]nnc2n1 [Azaguanine-8] |  |  |  |  | % Inhibition A673 ([1]; 1 μmol/L drug, 72 hours): 83%; % Inhibition Hs 919.T. [2, 5]: < 50%; % Inhibition SK-ES-1 ([3]; 1 μmol/L drug, 72 hours): < 50%; % Inhibition RD-ES ([4]; 1 μmol/L drug, 72 hours): < 50%
6 | CCCOc1ccc2nc(NC(=O)OC)[nH]c2c1 [Oxibendazole] | 64% | < 50% | 84% | 80% | 
7 | Cc1cc(/C=C/c2ccc3cc(N(C)C)ccc3[n+]2C)c(C)n1-c1ccccc1 [Pyrvinium pamoate] | 84% | < 50% | 96% | 98% | 
8 | Nc1nc(Cl)nc2c1ncn2[C@@H]1O[C@H](CO)[C@@H](O)[C@@H]1F [Clofarabine] | 93% | < 50% | 98% | 99% | 
9 | O=c1[nH]c(=O)n([C@H]2C[C@H](O)[C@@H](CO)O2)cc1F [Floxuridine] | 68% | < 50% | 56% | 92% | 
10 | N=c1ccn2c(n1)O[C@H]1[C@H](O)[C@@H](CO)O[C@H]12 [Cyclocytidine] | 86% | < 50% | 98% | 83% | 
11 | COC(=O)Nc1nc2cc(C(=O)c3ccc(F)cc3)ccc2[nH]1 [Flubendazole] | 77% | < 50% | 86% | 86% | 
12 | O=c1[nH]c(=O)n([C@H]2C[C@H](O)[C@@H](CO)O2)cc1C(F)(F)F [Trifluridine] | < 50% | < 50% | < 50% | 71% | 
13 | Cn1cnc([N+](=O)[O-])c1Sc1ncnc2nc[nH]c12 [Azathioprine] | < 50% | < 50% | 52% | < 50% | 
14 | CO[C@@H]1[C@@H](OC(N)=O)[C@@H](O)[C@H](Oc2ccc3c(O)c(NC(=O)c4ccc(O)c(CC=C(C)C)c4)c(=O)oc3c2C)OC1(C)C [Novobiocin sodium] | 60% | < 50% | < 50% | 51% | 
15 | CCCCC/C=C\C/C=C\C/C=C\C/C=C\CCCC(=O)Nc1ccc(O)cc1 [AM 404] |  |  |  |  | % Inhibition A673 ([1]; 1 μmol/L drug, 72 hours): 65%; % Inhibition Hs 919.T. [2, 5]: < 50%; % Inhibition SK-ES-1 ([3]; 1 μmol/L drug, 72 hours): < 50%; % Inhibition RD-ES ([4]; 1 μmol/L drug, 72 hours): < 50%
16 | NC(=O)N/N=C/c1ccc([N+](=O)[O-])o1 [Nitrofural/Nitrofurazone, Nitrofurazone] | 52% | < 50% | 72% | 52% | 
17 | C[C@]12CCC(=O)C=C1CC[C@@H]1[C@@H]2CC[C@@]2(C)[C@H]1CC[C@]2(C)O [Methyltestosterone] | < 50% | < 50% | < 50% | 73% | 
18 | C[C@]12CC[C@@H]3c4ccc(O)cc4CC[C@H]3[C@@H]1CC[C@@H]2O [Estradiol] | 65% | < 50% | < 50% | < 50% | 
19 | COC(=O)Nc1nc2ccc(C(=O)c3ccccc3)cc2[nH]1 [Mebendazole] | 94% | < 50% | 96% | 95% | 
20 | CCN(CC)C(=S)SSC(=S)N(CC)CC [Disulfiram] | 99% | < 50% | 95% | 96% | 
21 | O=c1c2ccccc2[se]n1-c1ccccc1 [Ebselen] | 93% | < 50% | 96% | 95% | 
22 | Cc1nc2ccc(CN(C)c3ccc(C(=O)N[C@@H](CCC(=O)O)C(=O)O)s3)cc2c(=O)[nH]1 [Raltitrexed] | 59% | < 50% | 51% | 80% | 
23 | COC(=O)Nc1nc2ccc(Sc3ccccc3)cc2[nH]1 [Fenbendazole] | 75% | < 50% | 78% | 86% | 
24 | CN(Cc1cnc2nc(N)nc(N)c2n1)c1ccc(C(=O)N[C@@H](CCC(=O)O)C(=O)O)cc1 (racemic) [Methotrexate/Amethopterin (R,S), Methotrexate] | 89% | < 50% | < 50% | 82% | 
25 | CC[C@@]1(O)C(=O)OCc2c1cc1n(c2=O)Cc2cc3c(CN(C)C)c(O)ccc3nc2-1 [Topotecan HCl] | 97% | < 50% | 96% | 97% | 
26 | COc1cc2c3cc1Oc1cc(ccc1O)C[C@@H]1c4c(cc(OC)c(O)c4Oc4ccc(cc4)C[C@@H]3N(C)CC2)CC[N+]1(C)C.Cl.O.O.O.O.O.[Cl-] [(+)-Tubocurarine chloride] |  |  |  |  | % Inhibition A673 ([1]; 1 μmol/L drug, 72 hours): < 50%; % Inhibition Hs 919.T. [2, 5]: < 50%; % Inhibition SK-ES-1 ([3]; 1 μmol/L drug, 72 hours): < 50%; % Inhibition RD-ES ([4]; 1 μmol/L drug, 72 hours): 51%
27 | CCCCCC[C@H]1C(=O)O[C@H](C)[C@H](NC(=O)c2cccc(NC=O)c2O)C(=O)O[C@@H](C)[C@@H]1OC(=O)CC(C)C [Antimycin A] | < 50% | < 50% | < 50% | 69% | 
28 | Clc1ccccc1CN1CCc2sccc2C1 [Ticlopidine] | 66% | < 50% | < 50% | < 50% | 
29 | CCCSc1ccc2nc(NC(=O)OC)[nH]c2c1 [Albendazole] |  |  |  |  | inhibition at 1 µM ([1]; A673, 72 h): 89%; inhibition at 1 µM ([2]; 72 h): < 50%; inhibition at 1 µM ([3]; SK-ES1, 72 h): 93%; inhibition at 1 µM ([4]; 72 h): 93%
30 | COc1cc([C@@H]2c3cc4c(cc3[C@@H](O[C@@H]3O[C@@H]5CO[C@@H](C)O[C@H]5[C@H](O)[C@H]3O)[C@H]3COC(=O)[C@H]23)OCO4)cc(OC)c1O [Etoposide] | < 50% | < 50% | 84% | 84% | 

— publication PMC5354814, “In silico and in vitro drug screening identifies new therapeutic approaches for Ewing sarcoma” (Oncotarget, 2016)
